The results in this text go back to patent publication US20240199661A1, “BICYCLIC HETEROARYL PHOSPHONATE DERIVATIVES AS ECTONUCLEOTIDE PYROPHOSPHATASE PHOSPHODIESTERASE 1 INHIBITORS” (RIBOSCIENCE LLC, priority 2021, published 2024).

A word on the Ki: it is a dissociation constant, usually derived from enzyme kinetics or from competition with a known ligand.

Where a name gives a salt, the structure may show the parent alone. Bounds are passed on as bounds.

The first assay has as its system HGS tumor model. In words: Anti-tumor activity in HGS tumor model. The format is in vivo. As to conditions: 20/kg of compound.
Consider `C=CC(=O)N1CCN(CCCn2c(=O)c(-c3c(Cl)c(OC)cc(OC)c3Cl)cc3cnc(NC)nc32)CC1` [8-(3-(4-acryloylpiperazin-1-yl)propyl)-6-(2,6-dichloro-3,5-dimethoxyphenyl)-2-(methylamino)pyrido[2,3-d]pyrimidin-7(8H)-one], for which the antitumor activity result was “significant antitumor activity and induced tumor regression”.

The assay is the same for the next values; noted with them: animals treated with 20/kg of compound, day 42 after inoculation (vehicle 645).
In the case of `C=CC(=O)N1CCN(CCCn2c(=O)c(-c3c(Cl)c(OC)cc(OC)c3Cl)cc3cnc(NC)nc32)CC1` [8-(3-(4-acryloylpiperazin-1-yl)propyl)-6-(2,6-dichloro-3,5-dimethoxyphenyl)-2-(methylamino)pyrido[2,3-d]pyrimidin-7(8H)-one], the tumor size is 55 mm3.

The target in a further assay is T1, ENPP1 (Homo sapiens, UniProt P22413).
T1 sequence (P22413 1-925): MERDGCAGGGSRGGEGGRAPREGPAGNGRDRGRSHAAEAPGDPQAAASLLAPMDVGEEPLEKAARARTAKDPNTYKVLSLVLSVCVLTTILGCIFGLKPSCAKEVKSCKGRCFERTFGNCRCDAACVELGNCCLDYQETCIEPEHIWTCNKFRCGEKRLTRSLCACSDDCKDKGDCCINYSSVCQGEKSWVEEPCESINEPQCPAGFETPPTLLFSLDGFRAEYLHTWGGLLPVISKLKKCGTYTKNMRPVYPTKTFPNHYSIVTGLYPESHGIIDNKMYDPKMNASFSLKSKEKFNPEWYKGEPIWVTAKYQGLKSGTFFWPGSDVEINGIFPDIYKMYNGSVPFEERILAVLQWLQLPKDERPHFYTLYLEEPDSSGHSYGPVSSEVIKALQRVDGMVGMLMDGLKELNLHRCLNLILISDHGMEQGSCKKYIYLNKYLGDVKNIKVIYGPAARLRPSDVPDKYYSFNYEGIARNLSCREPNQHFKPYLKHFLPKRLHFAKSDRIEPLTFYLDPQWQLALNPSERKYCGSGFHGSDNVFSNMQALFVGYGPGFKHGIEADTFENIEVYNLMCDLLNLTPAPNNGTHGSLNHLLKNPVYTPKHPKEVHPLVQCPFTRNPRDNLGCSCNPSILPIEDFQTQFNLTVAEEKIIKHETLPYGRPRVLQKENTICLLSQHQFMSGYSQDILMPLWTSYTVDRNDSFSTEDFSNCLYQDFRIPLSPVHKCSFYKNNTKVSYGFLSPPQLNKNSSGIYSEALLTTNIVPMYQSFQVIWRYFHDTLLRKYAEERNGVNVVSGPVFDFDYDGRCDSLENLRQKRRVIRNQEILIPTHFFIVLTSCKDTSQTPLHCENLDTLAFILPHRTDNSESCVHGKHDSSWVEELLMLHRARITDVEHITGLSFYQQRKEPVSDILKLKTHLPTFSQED
In words: Measurement of pNP-TMP hydrolysis by ENPP1 (enzyme activity assay, absorbance at 405 nm). The format is biochemical. The following applies: purified ENPP1, 500 μM pNP-TMP, Km 232 μM; Ki from IC50 by Cheng-Prusoff. On the procedure:
Measurement of pNP-TMP Hydrolysis by ENPP1
p-Nitrophenyl thymidine 5′-monophosphate (pNP-TMP) is a synthesized substrate for ENPP1. The ENPP1 enzyme activity assay with pNP-TMP substrate was conducted as follows:
First, in a 60 μl reaction, 7.5 ng purified ENPP1 was mixed with compounds of Formula (I) (test compound) ranging from 13.7 pM to 10 μM. Incubation of ENPP1 with compounds was set at 25° C. for 10 min. Reactions with DMSO only (with ENPP1 but no compound) gave the fastest reaction (MAX Activity). For each compound dilution, wells with assay buffer (50 mM Tris-HCl, pH8.8, 250 mM NaCl, 0.1 mg/ml BSA, 1% DMSO) only but no ENPP1 were included as controls for subtraction of test compound derived absorbance at 405 nm.
Second, after the 10 minutes ENPP1 and test compound incubation the assay was initiated by transferring 50 μl of the above mentioned ENPP1/test compound reaction into 50 μl of 1 mM pNP-TMP in assay buffer results in a 100 μl total reaction in clear bottom 96 well plates. Absorbance at 405 nm was recorded immediately in kinetic mode by PerkinElmer 2300 Enspire multimode plate reader.
For each inhibitor, the specific ENPP1 activity was calculated using the following equation: ENPP1 activity (pmol/min/μg)=Adjusted Vmax (OD405 nm/min)×conversion factor (pmol/OD405 nm)/amount of enzyme (μg)
Adjusted Vmax=V0×(Km+(S))/(S). In this assay, Km=232 μM, (S)=500 μM. Adjusted Vmax=1.464×V0.
V0=(OD405 nm with ENPP1−OD405 nm ENPP1 blank)/minutes. OD405 nm was plotted, with blank subtracted, against time (minutes), the initial linear rate is V0. […]
The conversion factor (pmol/OD405 nm), was determined by plotting the amount of standard, 4-Nitrophenol (Sigma-Aldrich, Catalog #241326), against absorbance at 405 nm. The slope is the conversion factor. The percent ENPP1 activity for each sample was calculated using the following equation:
% enzyme activity=sample enzyme activity/MAX Activity×100%.
To determine the IC50 for each compound, compound concentration values and percent enzyme activity values were inserted into GraphPad Prism (GraphPad Prism version 7.0 for Windows, GraphPad Software, La Jolla California USA, www.graphpad.com), and Prism's Transform analysis was used to convert the x-axis values (compound concentration) to logarithms. A sigmoidal variable slope nonlinear regression analysis was performed using the following equation: Y=Bottom+(Top−Bottom)/(1+10^((Log IC50−X)*HillSlope)).
Ki values for each compound were calculated from the observed IC50 from GraphPad analysis using the Cheng-Prusoff equation: Ki=IC50/(1+(S)/KM). (S) here is 500 μM and KM is determined to be 232 μM.
For `CC(C)c1nc(NCc2ccc(P(=O)(O)O)cc2)c2[nH]ncc2n1` [Compound 18, 4-[([5-isopropyl-1H-pyrazolo[4,3-d]pyrimidin-7-yl]amino)methyl]phenylphosphonic acid formic acid salt], the inhibition constant Ki was below 1000 nM.

As to `CCOP(=O)(O)c1ccc(CNc2ncnc3c(C(=O)NC)c[nH]c23)cc1` [Compound 2, ethoxy(4-([[7-(methylcarbamoyl)-5H-pyrrolo[3,2-d]pyrimidin-4-yl]-amino]methyl)phenyl)phosphinic acid], the Ki was above 10000 nM.

Take `O=P(O)(O)c1ccc(CNc2ncnc3cn[nH]c23)cc1` [Compound 12, 4-([1H-pyrazolo[4,3-d]pyrimidin-7-ylamino]methyl)phenyl-phosphonic acid]: the Ki is below 100 nM.

For the compound `CNC(=O)c1c[nH]c2c(N3CCC(CP(=O)(O)O)CC3)ncnc12` [Compound 9, [1-[7-(methylcarbamoyl)-5H-pyrrolo[3,2-d]pyrimidin-4-yl]piperidin-4-yl]methylphosphonic acid], the Ki is below 1000 nM.

On to `CNC(=O)c1c[nH]c2c(NCc3ccc(P(=O)(O)O)cc3)ncnc12` [Compound 3, 4-([[7-(methylcarbamoyl)-5H-pyrrolo[3,2-d]pyrimidin-4-yl]amino]-methyl)phenylphosphonic acid], for which the inhibition constant Ki was below 1000 nM.

As to `O=P(O)(O)c1ccc(CNc2ncnc3ccsc23)cc1` [Compound 16, 4-([thieno[3,2-d]pyrimidin-4-ylamino]methyl)phenyl-phosphonic acid], the inhibition constant (Ki) is below 100 nM.

The compound `CC(=O)Nc1csc2c(NCc3ccc(P(=O)(O)O)cc3)ncnc12` [Compound 15, 4-[([7-acetamidothieno[3,2-d]pyrimidin-4-yl]amino)methyl]-phenylphosphonic acid] yielded a Ki below 100 nM.

As for `CNC(=O)c1c[nH]c2c(NCc3ccc(CP(=O)(O)O)cc3)ncnc12` [Compound 4, [4-([[7-(methylcarbamoyl)-5H-pyrrolo[3,2-d]pyrimidin-4-yl]amino]-methyl)phenyl]methylphosphonic acid], the Ki is below 1000 nM.

For the compound `Cn1ncc2ncnc(NCc3ccc(P(=O)(O)O)cc3)c21` [Compound 1, 4-[([1-methylpyrazolo[4,3-d]pyrimidin-7-yl]amino)methyl]-phenyl-phosphonic acid], the Ki was below 100 nM.

Compound `CNC(=O)c1c[nH]c2c(N3CCC(CCP(=O)(O)O)CC3)ncnc12` [Compound 6, 2-[1-[7-(methylcarbamoyl)-5H-pyrrolo[3,2-d]pyrimidin-4-yl]-piperidin-4-yl]ethylphosphonic acid] returned an inhibitory constant (Ki) below 1000 nM.

For `CNC(=O)c1c[nH]c2c(N3CCC(CCCP(=O)(O)O)CC3)ncnc12` [Compound 11, 3-[1-[7-(methylcarbamoyl)-5H-pyrrolo[3,2-d]pyrimidin-4-yl]-piperidin-4-yl]propylphosphonic acid], the Ki is below 10000 nM.

Regarding `NC(=O)c1n[nH]c2c(NCc3ccc(P(=O)(O)O)cc3)ncnc12` [Compound 14, 4-[([3-carbamoyl-1H-pyrazolo[4,3-d]pyrimidin-7-yl]amino)methyl]-phenylphosphonic acid], the Ki is below 1000 nM.

`CC(C)c1nc(NCc2ccc(P(=O)(O)O)cc2)c2c(cnn2C)n1` [Compound 17, 4-(((5-isopropyl-1-methyl-1H-pyrazolo[4,3-d]pyrimidin-7-yl)amino)methyl)phenyl-phosphonic acid]: the Ki is below 1000 nM.

With `CCOP(=O)(CC1CCN(c2ncnc3c(C(=O)NC)c[nH]c23)CC1)OCC` (single isomer, unassigned) [Compound 7, diethyl [1-[7-(methylcarbamoyl)-5H-pyrrolo[3,2-d]pyrimidin-4-yl]-piperidin-4-yl]methylphosphonate], the Ki is above 10000 nM.

`CCOP(=O)(O)CCCC1CCN(c2ncnc3c(C(=O)NC)c[nH]c23)CC1` [Compound 10, ethoxy(3-[1-[7-(methylcarbamoyl)-5H-pyrrolo[3,2-d]pyrimidin-4-yl]-piperidin-4-yl]propyl)phosphinic acid] gave a Ki above 10000 nM.
